Our source for the IC50 values is patent US20140243292A1, “SUBSITUTED 2-(CHROMAN-6-YLOXYL)-THIAZOLES AND THEIR USE AS PHARMACEUTICALS” (Sanofi, priority 2011, published 2014).

Where a name gives a salt, the structure may show the parent alone.

For the test, the target named is T1, human NCX1 (Homo sapiens, UniProt P32418).
T1 construct: expressed in transfected cells
The experiment in a line: NCX1 inhibition, reverse mode (Ca2+ influx into cells), FLIPR Fluo-4 assay. In kind it is cell-based. The following applies: inhibition of NCX1 in reverse mode (Ca2+ influx into cells); read-out: NCX1rv IC50. The source says: The sodium/calcium exchanger NCX1 can transport calcium ions and sodium ions through the cell membrane. The transport is an exchange of Ca^2+ and Na^+ in two directions depending on membrane potential and ion gradients. At the first direction, named “forward mode” or “calcium export mode”, Ca^2+ is transported out of the cell and Na^+ is transported into the cell. At the other direction, named “reverse mode” or “calcium import mode”, the transport directions are vice versa. The effect of the compounds of the invention on NCX1 was determined in CHO cells stably expressing human NCX1 (gene symbol SLC8A1; cf. WO 2009/115238). The assay is based on the monitoring of intracellular Ca^2+ concentrations using a calcium-sensitive fluorescence dye which is detected by means of a FLIPR device (Fluorimetric Imaging Plate Reader, Molecular Devices).
The assay is based on the monitoring of intracellular Ca^2+ concentrations using the calcium-sensitive dye Fluo-4. CHO cells expressing NCX1 were loaded with the dye by means of the acetoxymethyl ester Fluo-4 AM (Invitrogen, F14202), which is cleaved intracellularly by esterase activity to yield the charged species of free Fluo-4. After an preincubation period with the test compound, Gramicidine (Sigma, G5002) was added. Gramicidine is an ionophor for Na^+ ions mediating an increase of intracellular Na^+ ions. Consequently, intracellular Na^+ ions are exchanged against extracellular Ca^2+ ions (Ca^2+ influx, reverse mode). The intracellular elevation of Ca^2+ ions was detected by measuring the fluorescence of Fluo-4 at a wavelength of 520 nm by a FLIPR device.
Briefly, for the reverse mode transport assay 18000 cells per well were seeded into a 96 well microplate (Corning COSTAR 3904) and incubated overnight in culture medium (1× Nut Mix F12 (Ham) (Gibco, 21765-029); 10% (v/v) fetal calf serum (PAA Gold, A15-649); 450 μg/ml Geneticin (Gibco, 10131-027)). A total volume of 100 μl medium per well was used. For the preparation of the FLIPR assay, the culture medium was removed from the plates and 100 μl of dye solution (2 μM Fluo-4 AM; 0.02% (v/v) Pluronic F-127 (20%, Invitrogen, P3000MP); 0.1% (v/v) bovine albumin solution (30% (v/v), Sigma, A9205) in assay buffer (133.8 mM NaCl (Sigma, S5886); 4.7 mM KCl (Sigma, P3911); 1.25 mM MgCl2 (Merck, 1.05833.0250); 3.5 mM CaCl2 (Merck, 1.02083.0250); 5 mM glucose (Sigma, G7021); 10 mM Hepes (Sigma, H4034); 0.01% (v/v) Pluronic F-127 (5%, Sigma, P2443); 2.5 mM Probenecid (Maybridge, SB00915EB); pH 7.4)) were added into each well. The plates were incubated in the dark at room temperature for 80 min. After the incubation period, the dye solution was removed and the wells were washed with 100 μl of assay buffer. Then 80 μl of a solution of the test compound in assay buffer in different concentrations were added into the wells. The plates were incubated at 16° C. for 45 min. Meanwhile a 60 μM solution of Gramicidine in assay buffer (4° C.) was prepared and stored in the wells of a 96 well microplate (96 well microplate, polypropylene, U-shape (Greiner Bio-One, 650201)) at 4° C. until measurement was started. The fluorescence monitoring was performed at 240 measuring points with measurement intervals of 2 sec. After the fifth measuring point, 40 μl of the Gramicidine solution were added to each well of the assay plates to give a final Gramicidine concentration of 20 μM. For the determination of the IC50 values the minimal fluorescence value was subtracted from the maximal fluorescence value for all measuring points. The calculation of the IC50 values via the percentage inhibitions of Ca^2+ influx into cells (reverse mode) effected by the test compound was performed in Biost@t Speed 2.0.
As a reminder, the IC50 is the midpoint of a concentration-inhibition curve. Take `Cc1cc(NCc2cnc(Oc3ccc4c(c3)CCC(c3ccccc3)O4)s2)on1` (stereo not drawn) [compound 111]: the IC50 was determined as 0.8 µM.

As to `CCC(C)(C)NCc1cnc(Oc2ccc3c(c2)CCC(c2ccccc2)O3)s1` (stereo not drawn) [compound 112], the IC50 came out at 0.3 µM.

In the case of `CC(C)NCc1cnc(Oc2ccc3c(c2)CCC(c2ccccc2)O3)s1` (stereo not drawn) [compound 113], the IC50 worked out at 0.3 µM.

On to `COCCNCc1cnc(Oc2ccc3c(c2)CCC(c2ccccc2)O3)s1` (stereo not drawn) [compound 114], for which the IC50 worked out at 0.2 µM.

`CC(C)CCNCc1cnc(Oc2ccc3c(c2)CCC(c2ccccc2)O3)s1` (stereo not drawn) [compound 115]: the IC50 was 0.6 µM.

`CCCNCc1cnc(Oc2ccc3c(c2)CCC(c2ccccc2)O3)s1` (stereo not drawn) [compound 116]: the IC50 was found to be 0.2 µM.

For the molecule `c1ccc(C2CCc3cc(Oc4ncc(CN5CCOCC5)s4)ccc3O2)cc1` (stereo not drawn) [compound 117], the IC50 was 0.3 µM.

With `CC(C)(C)NCc1cnc(Oc2ccc3c(c2)CCC(c2ccccc2)O3)s1` (stereo not drawn) [compound 118], the 50% inhibitory concentration (IC50) was determined as 0.4 µM.

Take `CN(C)Cc1cnc(Oc2ccc3c(c2)CCC(c2ccccc2)O3)s1` (stereo not drawn) [compound 119]: the IC50 worked out at 0.4 µM.

For the molecule `c1ccc(C2CCc3cc(Oc4ncc(CNCC5CC5)s4)ccc3O2)cc1` (stereo not drawn) [compound 120], the IC50 was found to be 0.3 µM.

In the case of `c1ccc(C2CCc3cc(Oc4ncc(CN5C6CCC5CC6)s4)ccc3O2)cc1` (stereo not drawn) [compound 121], the IC50 is 0.6 µM.

As to `CN1CCN(Cc2cnc(Oc3ccc4c(c3)CCC(c3ccccc3)O4)s2)CC1` (stereo not drawn) [compound 122], the IC50 is 0.8 µM.

As to `CN1CCOc2cc(S(=O)(=O)NCc3cnc(Oc4ccc5c(c4)CCC(c4ccccc4)O5)s3)ccc21` (stereo not drawn) [compound 123], the IC50 came out at 1.1 µM.

Turning to `Cc1nc2ccc(S(=O)(=O)NCc3cnc(Oc4ccc5c(c4)CCC(c4ccccc4)O5)s3)cc2s1` (stereo not drawn) [compound 124], the IC50 amounted to 0.9 µM.

For the molecule `Cc1nc(C)c(S(=O)(=O)NCc2cnc(Oc3ccc4c(c3)CCC(c3ccccc3)O4)s2)s1` (stereo not drawn) [compound 126], the IC50 came out at 0.6 µM.

For `Cc1ncc(S(=O)(=O)NCc2cnc(Oc3ccc4c(c3)CCC(c3ccccc3)O4)s2)n1C` (stereo not drawn) [compound 127], the IC50 was 1.1 µM.

As to `Cn1nccc1S(=O)(=O)NCc1cnc(Oc2ccc3c(c2)CCC(c2ccccc2)O3)s1` (stereo not drawn) [compound 128], the IC50 was determined as 0.3 µM.

For the molecule `Cn1cc(S(=O)(=O)NCc2cnc(Oc3ccc4c(c3)CCC(c3ccccc3)O4)s2)cn1` (stereo not drawn) [compound 129], the IC50 was found to be 0.9 µM.

With `Cc1c(S(=O)(=O)NCc2cnc(Oc3ccc4c(c3)CCC(c3ccccc3)O4)s2)cnn1C(C)C` (stereo not drawn) [compound 130], the IC50 worked out at 0.7 µM.

As to `Cc1n[nH]c(C)c1S(=O)(=O)NCc1cnc(Oc2ccc3c(c2)CCC(c2ccccc2)O3)s1` (stereo not drawn) [compound 131], the IC50 was determined as 23.8 µM.

Turning to `CCn1cc(S(=O)(=O)NCc2cnc(Oc3ccc4c(c3)CCC(c3ccccc3)O4)s2)cn1` (stereo not drawn) [compound 132], the IC50 worked out at 0.3 µM.

As to `Cc1c(S(=O)(=O)NCc2cnc(Oc3ccc4c(c3)CCC(c3ccccc3)O4)s2)cnn1C` (stereo not drawn) [compound 133], the IC50 was 0.4 µM.

In the case of `Cc1cnc(CNCc2cnc(Oc3ccc4c(c3)CCC(c3ccccc3)O4)s2)cn1` (stereo not drawn) [compound 135], the IC50 was 0.5 µM.

Turning to `Cc1ccn(CCNCc2cnc(Oc3ccc4c(c3)CCC(c3ccccc3)O4)s2)n1` (stereo not drawn) [compound 136], the IC50 was 0.5 µM.

Consider `Cc1nn(C)cc1CNCc1cnc(Oc2ccc3c(c2)CCC(c2ccccc2)O3)s1` (stereo not drawn) [compound 137], for which the 50% inhibitory concentration (IC50) is 0.4 µM.

As for `Cc1c(CNCc2cnc(Oc3ccc4c(c3)CCC(c3ccccc3)O4)s2)cnn1C` (stereo not drawn) [compound 138], the IC50 turned out to be 0.3 µM.

For `CCn1cc(CNCc2cnc(Oc3ccc4c(c3)CCC(c3ccccc3)O4)s2)c(C)n1` (stereo not drawn) [compound 139], the IC50 is 0.5 µM.

For the molecule `Cc1cc(CNCc2cnc(Oc3ccc4c(c3)CCC(c3ccccc3)O4)s2)no1` (stereo not drawn) [compound 140], the IC50 was 0.2 µM.

With `Cc1cc(CNCc2cnc(Oc3ccc4c(c3)CCC(c3ccccc3)O4)s2)n(C)n1` (stereo not drawn) [compound 141], the IC50 was determined as 0.4 µM.

Turning to `c1ccc(C2CCc3cc(Oc4ncc(CNCCCn5cccn5)s4)ccc3O2)cc1` (stereo not drawn) [compound 142], the IC50 came to 0.3 µM.

For `Cc1cc(C)nc(CNCc2cnc(Oc3ccc4c(c3)CCC(c3ccccc3)O4)s2)n1` (stereo not drawn) [compound 143], the IC50 was determined as 0.5 µM.

As for `C1=C(CNCc2cnc(Oc3ccc4c(c3)CCC(c3ccccc3)O4)s2)N2CCCN=C2S1` (stereo not drawn) [compound 144], the IC50 is 0.8 µM.

As to `c1ccc(C2CCc3cc(Oc4ncc(CNCc5cccnc5N5CCOCC5)s4)ccc3O2)cc1` (stereo not drawn) [compound 145], the IC50 turned out to be 0.9 µM.

Turning to `Cn1nccc1CNCc1cnc(Oc2ccc3c(c2)CCC(c2ccccc2)O3)s1` (stereo not drawn) [compound 146], the IC50 came to 0.2 µM.

`Cc1cc(CNCc2cnc(Oc3ccc4c(c3)CCC(c3ccccc3)O4)s2)nn1C` (stereo not drawn) [compound 147]: the IC50 came to 0.3 µM.

Regarding `Cc1c(C(C)NCc2cnc(Oc3ccc4c(c3)CCC(c3ccccc3)O4)s2)cnn1C` (stereo not drawn) [compound 148], the IC50 was 0.4 µM.

Consider `c1ccc(C2CCc3cc(Oc4ncc(CNCCn5cccn5)s4)ccc3O2)cc1` (stereo not drawn) [compound 149], for which the IC50 turned out to be 0.3 µM.

In the case of `Cc1cc(C)n(CCNCc2cnc(Oc3ccc4c(c3)CCC(c3ccccc3)O4)s2)n1` (stereo not drawn) [compound 150], the 50% inhibitory concentration (IC50) came to 0.8 µM.

For the molecule `Cc1csc(CCNCc2cnc(Oc3ccc4c(c3)CCC(c3ccccc3)O4)s2)n1` (stereo not drawn) [compound 151], the IC50 was 0.4 µM.

With `Cc1noc(C)c1CNCc1cnc(Oc2ccc3c(c2)CCC(c2ccccc2)O3)s1` (stereo not drawn) [compound 152], the IC50 is 0.3 µM.

Consider `Cc1noc(C)c1CCCNCc1cnc(Oc2ccc3c(c2)CCC(c2ccccc2)O3)s1` (stereo not drawn) [compound 153], for which the IC50 was found to be 0.5 µM.

`Oc1cc(CNCc2cnc(Oc3ccc4c(c3)CCC(c3ccccc3)O4)s2)ccn1` (stereo not drawn) [compound 154]: the IC50 came out at 0.3 µM.

As to `Nc1cc(CNCc2cnc(Oc3ccc4c(c3)CCC(c3ccccc3)O4)s2)ccn1` (stereo not drawn) [compound 155], the IC50 came to 0.4 µM.

Turning to `c1ccc(C2CCc3cc(Oc4ncc(CNCc5nnc6ccccn56)s4)ccc3O2)cc1` (stereo not drawn) [compound 156], the IC50 amounted to 0.4 µM.

`N#Cc1ccc(CNCc2cnc(Oc3ccc4c(c3)CCC(c3ccccc3)O4)s2)cn1` (stereo not drawn) [compound 157]: the IC50 was found to be 0.2 µM.

As for `c1ccc(C2CCc3cc(Oc4ncc(CNCc5ccno5)s4)ccc3O2)cc1` (stereo not drawn) [compound 159], the IC50 came out at 0.1 µM.

For the molecule `Cc1cc(CNCc2cnc(Oc3ccc4c(c3)CCC(c3ccccc3)O4)s2)on1` (stereo not drawn) [compound 160], the IC50 is 0.2 µM.

`c1ccc(C2CCc3cc(Oc4ncc(CNCc5ccncn5)s4)ccc3O2)cc1` (stereo not drawn) [compound 161]: the IC50 came to 0.3 µM.

As for `c1ccc(C2CCc3cc(Oc4ncc(CNCc5ccnc(N6CCOCC6)c5)s4)ccc3O2)cc1` (stereo not drawn) [compound 162], the IC50 worked out at 0.4 µM.

With `Cc1nc(S(=O)(=O)NCc2cnc(Oc3ccc4c(c3)CCC(c3ccccc3)O4)s2)cn1C` (stereo not drawn) [compound 163], the IC50 stood at 0.4 µM.

In the case of `CN1CC(=O)N(CC(=O)NCc2cnc(Oc3ccc4c(c3)CCC(c3ccccc3)O4)s2)C1=O` (stereo not drawn) [compound 164], the IC50 was 0.7 µM.

For `O=C(CN1CCCC1=O)NCc1cnc(Oc2ccc3c(c2)CCC(c2ccccc2)O3)s1` (stereo not drawn) [compound 165], the IC50 worked out at 0.5 µM.

With `Cc1nc(Oc2ccc3c(c2)CCC(c2ccccc2)O3)sc1C(=O)NCc1ccno1` (stereo not drawn) [compound 166], the concentration for half-maximal inhibition (IC50) amounted to 0.3 µM.

For the molecule `Cc1nc(Oc2ccc3c(c2)CCC(c2ccccc2)O3)sc1C(=O)NCc1ccnc(Cl)c1` (stereo not drawn) [compound 167, hydrochloride], the IC50 was 0.5 µM.
